Experimental data from the supplement of paper PMC10307832.

Key:
Assay in all cases: relative viability (nuclei count vs DMSO), 5 days (fraction); higher = more cells survive
Vemurafenib + Bortezomib = compound: CCCS(=O)(=O)Nc1ccc(F)c(C(=O)c2c[nH]c3ncc(-c4ccc(Cl)cc4)cc23)c1F [Vemurafenib] + CC(C)C[C@H](NC(=O)[C@H](Cc1ccccc1)NC(=O)c1cnccn1)B(O)O [Bortezomib] (partner 0.002 µM)
Outline: (§1)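 Values are medians from duplicate plates. Each reflects relative viability, defined as the nuclei count of treated wells over that of vehicle wells. Lung cancer cell lines in 1536-well plates were pin-tool dosed one day after seeding with one drug alone or with a fixed anchor-drug dose plus five library-drug doses (not always all listed) in √10 steps, then fixed, stained and imaged at 4× after 5 days.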

OSI-027 + Pictilisib = compound: COc1cccc2cc(-c3nc([C@H]4CC[C@H](C(=O)O)CC4)n4ncnc(N)c34)[nH]c12 [OSI-027] + CS(=O)(=O)N1CCN(Cc2cc3nc(-c4cccc5[nH]ncc45)nc(N4CCOCC4)c3s2)CC1 [Pictilisib] (partner 1 µM)
Outline: as §1

OSI-027 + Linsitinib = compound: COc1cccc2cc(-c3nc([C@H]4CC[C@H](C(=O)O)CC4)n4ncnc(N)c34)[nH]c12 [OSI-027] + C[C@]1(O)C[C@@H](c2nc(-c3ccc4ccc(-c5ccccc5)nc4c3)c3c(N)nccn32)C1 [Linsitinib] (partner 1 µM)
Outline: as §1

Vemurafenib + Tozasertib = compound: CCCS(=O)(=O)Nc1ccc(F)c(C(=O)c2c[nH]c3ncc(-c4ccc(Cl)cc4)cc23)c1F [Vemurafenib] + Cc1cc(Nc2cc(N3CCN(C)CC3)nc(Sc3ccc(NC(=O)C4CC4)cc3)n2)n[nH]1 [Tozasertib] (partner 0.1 µM)
Outline: as §1

## UMC-11
Vemurafenib + Bortezomib; first compound 0.03162 µM
  relative viability: 0.468
Vemurafenib + Bortezomib; first compound 0.1 µM
  relative viability: 0.713
Vemurafenib + Bortezomib; first compound 0.3162 µM
  relative viability: 0.57
Vemurafenib + Bortezomib; first compound 1 µM
  relative viability: 0.296
OSI-027 + Pictilisib; first compound 0.01 µM
  relative viability: 0.739
OSI-027 + Pictilisib; first compound 0.03162 µM
  relative viability: 1.03
OSI-027 + Pictilisib; first compound 0.1 µM
  relative viability: 0.664
OSI-027 + Pictilisib; first compound 0.3162 µM
  relative viability: 0.636
OSI-027 + Pictilisib; first compound 1 µM
  relative viability: 0.412
OSI-027 + Linsitinib; first compound 0.01 µM
  relative viability: 1
OSI-027 + Linsitinib; first compound 0.03162 µM
  relative viability: 1.04
OSI-027 + Linsitinib; first compound 0.1 µM
  relative viability: 0.944
OSI-027 + Linsitinib; first compound 0.3162 µM
  relative viability: 0.676
OSI-027 + Linsitinib; first compound 1 µM
  relative viability: 0.468
Vemurafenib + Tozasertib; first compound 0.03162 µM
  relative viability: 0.217
Vemurafenib + Tozasertib; first compound 0.1 µM
  relative viability: 0.216
Vemurafenib + Tozasertib; first compound 0.3162 µM
  relative viability: 0.199
Vemurafenib + Tozasertib; first compound 1 µM
  relative viability: 0.212
